The text below walks through data of US7528138B2, “Pyrazolo[1,5-a]pyrimidines useful as inhibitors of protein kinases” (Vertex Pharmaceuticals Incorporated, priority 2004, dated 2009).

The Ki is a measure of affinity in units of concentration, obtained from inhibition or displacement.

The target in one assay is c-Met (Homo sapiens, UniProt P08581). The assay can be described thus: c-Met Inhibition Assay, coupled enzyme system. The format is biochemical. Conditions: enzyme inhibition data (Ki), Table 11. The procedure, abridged: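 Pyruvate kinase/lactate dehydrogenase-coupled NADH assay in HEPES pH 7.5 with 80 nM c-Met, 200 μM ATP and 10 μM polyGluTyr at 30° C. Compound (0.006–12.5 μM final, 12-point) preincubated 10 min before ATP start; rates over 10 min gave Ki.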

The next assay has as its target T1, Aurora-2 (Homo sapiens, UniProt O14965).
T1 sequence (O14965 1-403): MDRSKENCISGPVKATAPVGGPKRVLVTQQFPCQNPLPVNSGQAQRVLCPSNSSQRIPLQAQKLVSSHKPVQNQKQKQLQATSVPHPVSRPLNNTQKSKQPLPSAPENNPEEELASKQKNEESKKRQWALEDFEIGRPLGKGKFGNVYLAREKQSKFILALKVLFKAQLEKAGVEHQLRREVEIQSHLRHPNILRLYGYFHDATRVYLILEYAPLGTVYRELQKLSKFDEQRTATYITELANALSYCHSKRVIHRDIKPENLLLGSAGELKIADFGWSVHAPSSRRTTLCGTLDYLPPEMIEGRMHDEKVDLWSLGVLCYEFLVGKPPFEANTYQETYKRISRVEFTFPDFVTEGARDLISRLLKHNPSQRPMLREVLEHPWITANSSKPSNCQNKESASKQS
The assay can be described thus: Aurora-A (Aurora-2) Inhibition Assay, coupled enzyme assay. Conditions: enzyme inhibition data (Ki), Table 11; read-out: AurA Ki. It counts as biochemical. The procedure: Compounds are screened for their ability to inhibit Aurora-2 using a standard coupled enzyme assay (Fox et al., Protein Sci., (1998) 7, 2249). Assays are carried out in a mixture of 100 mM Hepes (pH7.5), 10 mM MgCl2, 1 mM DTT, 25 mM NaCl, 2.5 mM phosphoenolpyruvate, 300 μM NADH, 30 μg/ml pyruvate kinase and 10 μg/ml lactate dehydrogenase. Final substrate concentrations in the assay are 400 μM ATP (Sigma Chemicals) and 570 μM peptide (Kemptide, American Peptide, Sunnyvale, Calif.). Assays are carried out at 30° C. and in the presence of 40 nM Aurora-2.
An assay stock buffer solution is prepared containing all of the reagents listed above, with the exception of Aurora-2 and the test compound of interest. 55 μl of the stock solution is placed in a 96 well plate followed by addition of 2 μl of DMSO stock containing serial dilutions of the test compound (typically starting from a final concentration of 7.5 μM). The plate is preincubated for 10 minutes at 30° C. and the reaction initiated by addition of 10 μl of Aurora-2. Initial reaction rates are determined with a Molecular Devices SpectraMax Plus plate reader over a 10 minute time course. IC50 and Ki data are calculated from non-linear regression analysis using the Prism software package (GraphPad Prism version 3.0cx for Macintosh, GraphPad Software, San Diego Calif., USA).

Sequence of c-Met (P08581 25-1390): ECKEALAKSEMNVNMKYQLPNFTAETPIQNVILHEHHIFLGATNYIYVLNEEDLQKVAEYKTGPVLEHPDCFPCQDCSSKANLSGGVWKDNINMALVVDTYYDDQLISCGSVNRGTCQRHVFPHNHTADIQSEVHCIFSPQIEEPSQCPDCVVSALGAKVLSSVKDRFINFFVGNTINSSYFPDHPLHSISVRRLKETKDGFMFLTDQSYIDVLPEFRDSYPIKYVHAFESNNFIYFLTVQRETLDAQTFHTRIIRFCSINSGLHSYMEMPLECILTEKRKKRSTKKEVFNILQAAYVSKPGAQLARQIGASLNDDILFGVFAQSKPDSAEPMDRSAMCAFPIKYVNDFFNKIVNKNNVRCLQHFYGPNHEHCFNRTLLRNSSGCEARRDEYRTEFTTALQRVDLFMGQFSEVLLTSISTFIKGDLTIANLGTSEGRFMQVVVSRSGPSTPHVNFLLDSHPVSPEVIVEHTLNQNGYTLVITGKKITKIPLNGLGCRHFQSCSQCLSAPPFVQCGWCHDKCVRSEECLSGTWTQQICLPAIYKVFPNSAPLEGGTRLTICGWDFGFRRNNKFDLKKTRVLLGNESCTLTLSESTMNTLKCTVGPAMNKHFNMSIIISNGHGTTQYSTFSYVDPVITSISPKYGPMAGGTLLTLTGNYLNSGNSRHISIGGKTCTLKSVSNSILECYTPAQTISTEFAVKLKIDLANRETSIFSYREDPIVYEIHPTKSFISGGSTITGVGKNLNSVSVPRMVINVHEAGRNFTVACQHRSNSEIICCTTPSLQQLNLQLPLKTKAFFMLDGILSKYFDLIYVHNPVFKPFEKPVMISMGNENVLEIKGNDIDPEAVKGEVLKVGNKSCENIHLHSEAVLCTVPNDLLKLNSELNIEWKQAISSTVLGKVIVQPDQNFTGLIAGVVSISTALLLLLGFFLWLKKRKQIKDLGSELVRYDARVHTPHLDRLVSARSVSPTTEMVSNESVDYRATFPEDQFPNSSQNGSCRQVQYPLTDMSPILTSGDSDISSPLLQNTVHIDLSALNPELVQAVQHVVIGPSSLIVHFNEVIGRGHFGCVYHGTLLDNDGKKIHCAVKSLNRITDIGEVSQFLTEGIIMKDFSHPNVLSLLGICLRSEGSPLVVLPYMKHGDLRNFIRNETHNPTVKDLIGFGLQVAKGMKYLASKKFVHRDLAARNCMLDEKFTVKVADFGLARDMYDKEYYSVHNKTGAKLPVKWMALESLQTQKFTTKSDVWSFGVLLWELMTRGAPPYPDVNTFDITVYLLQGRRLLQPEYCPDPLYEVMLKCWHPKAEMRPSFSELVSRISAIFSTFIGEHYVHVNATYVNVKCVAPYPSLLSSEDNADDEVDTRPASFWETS

Regarding `Nc1nn2cc(-c3ccc(CO)cc3)cnc2c1-c1ccccn1` [Compound V-194], the Ki at c-Met and on Aurora-2 was less than 0.5 µM throughout.

Consider `NCc1ccc(-c2cnc3c(-c4ccccn4)c(N)nn3c2)cc1` [Compound V-195], for which the Ki at c-Met and on Aurora-2 was less than 0.5 µM each time.

Regarding `NCc1cccc(-c2cnc3c(-c4ccccn4)c(N)nn3c2)c1` [Compound V-202], the Ki is less than 0.5 µM at c-Met and 0.5 to 5 µM on Aurora-2.

`CNC(=O)c1cnc2c(-c3ccccn3)c(N)nn2c1` [Compound V-204]: the Ki on c-Met and at Aurora-2 was 0.5 to 5 µM throughout.

In the case of `Nc1nn2cc(C(=O)NC3CCCNC3)cnc2c1-c1ccccn1` (stereo not shown) [Compound V-206], the Ki at c-Met and at Aurora-2 was 0.5 to 5 µM in each case.

Turning to `Nc1nn2cc(-c3ccc(CN4CCOCC4)cc3)cnc2c1-c1ccccn1` [Compound V-208], the Ki at c-Met was 0.5 to 5 µM; at Aurora-2, less than 0.5 µM.

For the compound `Nc1nn2cc(-c3ccc4[nH]ccc4c3)cnc2c1-c1ccccn1` [Compound V-212], the Ki at c-Met and at Aurora-2 was less than 0.5 µM each time.

For the compound `CN(C)Cc1ccc(-c2cnc3c(-c4ccccn4)c(N)nn3c2)cc1` [Compound V-214], the Ki on c-Met and at Aurora-2 was less than 0.5 µM throughout.

With `CN(C)Cc1cccc(-c2cnc3c(-c4ccccn4)c(N)nn3c2)c1` [Compound V-215], the Ki on c-Met was less than 0.5 µM; at Aurora-2 it was 0.5 to 5 µM.

Regarding `COc1ccc(-c2cn3nc(N)c(-c4ccccn4)c3nc2C)cc1` [Compound V-216], the Ki at c-Met and on Aurora-2 was 0.5 to 5 µM throughout.

For the compound `Nc1nn2cc(-c3ccc(CN4CCNCC4)cc3)cnc2c1-c1ccccn1` [Compound V-217], the Ki on c-Met and at Aurora-2 was less than 0.5 µM throughout.

As for `COc1ccc(-c2cnc3c(-c4ccncc4)c(N)nn3c2)cc1` [Compound V-219], the Ki at c-Met and on Aurora-2 was 0.5 to 5 µM in each case.

Turning to `Nc1nn2cc(-c3cccc(CO)c3)cnc2c1-c1ccccn1` [Compound V-221], the Ki was less than 0.5 µM on c-Met and 0.5 to 5 µM on Aurora-2.

For `Nc1nn2cc(-c3cccc(N4CCNCC4)c3)cnc2c1-c1ccccn1` [Compound V-222], the Ki on c-Met and on Aurora-2 was less than 0.5 µM throughout.

`Nc1nn2cc(-c3cccc(CN4CCNCC4)c3)cnc2c1-c1ccccn1` [Compound V-223]: the Ki at c-Met is less than 0.5 µM; on Aurora-2 it was 0.5 to 5 µM.

Regarding `Nc1nn2cc(-c3cccc(CN4CCOCC4)c3)cnc2c1-c1ccccn1` [Compound V-225], the Ki is less than 0.5 µM on c-Met and 0.5 to 5 µM at Aurora-2.

Consider `NC1NN2C=C(c3cccc(CN4CC[C@@H](N)C4)c3)C=NC2=C1c1ccccn1` (stereo partly shown) [Compound V-226], for which the Ki was less than 0.5 µM at c-Met and 0.5 to 5 µM at Aurora-2.

For `NC1NN2C=C(c3cccc(CN4CC[C@H](N)C4)c3)C=NC2=C1c1ccccn1` (stereo partly shown) [Compound V-227], the Ki at c-Met is less than 0.5 µM; at Aurora-2, 0.5 to 5 µM.

In the case of `NC1NN2C=C(c3cccc(CN4CCCNCC4)c3)C=NC2=C1c1ccccn1` (stereo not shown) [Compound V-228], the Ki was less than 0.5 µM on c-Met and 0.5 to 5 µM on Aurora-2.

On to `NC1CCN(Cc2cccc(C3=CN4NC(N)C(c5ccccn5)=C4N=C3)c2)CC1` (stereo not shown) [Compound V-229], for which the Ki on c-Met was less than 0.5 µM; at Aurora-2 it was 0.5 to 5 µM.

On to `CNCCCN(C)Cc1ccc(-c2cnc3c(-c4ccccn4)c(N)nn3c2)cc1` [Compound V-230], for which the Ki at c-Met and at Aurora-2 was less than 0.5 µM throughout.

As for `Nc1nn2cc(-c3ccc(CN4CC[C@@H](N)C4)cc3)cnc2c1-c1ccccn1` [Compound V-231], the Ki on c-Met and on Aurora-2 was less than 0.5 µM each time.

As for `Nc1nn2cc(-c3ccc(CNC4CCNCC4)cc3)cnc2c1-c1ccccn1` [Compound V-232], the Ki at c-Met was less than 0.5 µM; on Aurora-2, 0.5 to 5 µM.

`Nc1nn2cc(-c3ccc(CN4CC[C@H](N)C4)cc3)cnc2c1-c1ccccn1` [Compound V-233]: the Ki on c-Met and at Aurora-2 was less than 0.5 µM each time.

Consider `Nc1nn2cc(-c3ccc(CN4CCC(N)CC4)cc3)cnc2c1-c1ccccn1` [Compound V-234], for which the Ki at c-Met and at Aurora-2 was less than 0.5 µM throughout.

In the case of `CNCc1ccc(-c2cnc3c(-c4ccccn4)c(N)nn3c2)cc1` [Compound V-236], the Ki on c-Met and on Aurora-2 was less than 0.5 µM throughout.

Regarding `CC(C)(O)C#Cc1cnc2c(-c3ccccn3)c(N)nn2c1` [Compound V-237], the Ki at c-Met is less than 0.5 µM; on Aurora-2, 0.5 to 5 µM.

For the compound `Nc1nn2cc(C#CCO)cnc2c1-c1ccccn1` [Compound V-238], the Ki on c-Met is less than 0.5 µM; at Aurora-2 it was 0.5 to 5 µM.

Regarding `Nc1nn2cc(-c3ccncc3)cnc2c1-c1cc(Nc2ccccc2)ncn1` [Compound V-241], the Ki at c-Met and at Aurora-2 was less than 0.5 µM in each case.

Regarding `COc1ccccc1Nc1cc(-c2c(N)nn3cc(-c4ccncc4)cnc23)ncn1` [Compound V-242], the Ki at c-Met and on Aurora-2 was less than 0.5 µM throughout.

With `CC(C)CN(C)c1cc(-c2c(N)nn3cc(-c4ccncc4)cnc23)ncn1` [Compound V-243], the Ki on c-Met and at Aurora-2 was less than 0.5 µM each time.

`CCCN(CC)c1cc(-c2c(N)nn3cc(-c4ccncc4)cnc23)ncn1` [Compound V-244]: the Ki on c-Met and on Aurora-2 was less than 0.5 µM in each case.
